Laboratory results as given in a melting point compilation (Tetko et al.).

Row | Structure (SMILES) | melting point
1 | Cc1cscc1C(=O)O | 135 to 137 °C
2 | COc1ccccc1NS(=O)(=O)c1cc(C(=O)O)ccc1Cl | 176 to 178 °C
3 | COc1c([N+](=O)[O-])ccc(C=O)c1OC(F)F | 95 to 97 °C
4 | CNc1cc(Cl)ncn1 | 138 to 140 °C
5 | Cc1cc(C)cc(-n2nc(C)cc2N)c1 | 95 to 97 °C
6 | Nn1c(S)nnc1C1CCOCC1 | 177 to 179 °C
7 | CC(C)(C)c1cccc(OCC(=O)O)c1 | 117 to 119 °C
8 | CC(C)(C)C(=O)Nc1ccc(C(=O)CCl)cc1 | 132 to 134 °C
9 | Cc1ccc(NS(=O)(=O)c2cccc(C(=O)O)c2)c(C)c1 | 194 to 196 °C
10 | Cc1noc(C)c1S(N)(=O)=O | 151 to 152 °C
11 | Sc1nnc(-c2ccncc2)[nH]1 | 308 to 313 °C
12 | COc1ccccc1C(NC(=O)OC(C)(C)C)C(=O)O (stereo not drawn) | 146 to 148 °C
13 | O=C(O)C1(c2cccc(Cl)c2)CCCC1 | 150 to 152 °C
14 | CCOc1cc(C(=O)O)cc(Br)c1OC | 182 to 184 °C
15 | COc1ccccc1C(NC(=O)OC(C)(C)C)C(N)=NO (stereo not drawn) | 185 to 187 °C
16 | CSc1nc(C)nc(C)c1C(=O)O | 223 to 225 °C
17 | O=C(c1cccc(F)c1)N1CCCNCC1 | 49 to 51 °C
18 | COC(=O)c1cc([N+](=O)[O-])c(F)cc1Cl | 59 to 61 °C
19 | Cc1ccoc1-c1nnc(CCl)o1 | 49 to 51 °C
20 | NC(=O)N1CC(O)CC1C(=O)O (stereo not drawn) | 166 to 168 °C
21 | O=C(O)c1cc2c(F)c(F)ccc2[nH]1 | 209 to 211 °C
22 | O=Cc1ccccc1OCC(F)(F)F | 51 to 53 °C
23 | Oc1ccccc1OCc1ccc(F)cc1 | 55 to 57 °C
24 | Cc1cc(C)c2cc(C(=O)O)[nH]c2c1 | 168 to 170 °C

Row | Structure (SMILES) | melting point
25 | Cc1sc(C(=O)O)cc1[N+](=O)[O-] | 97 to 99 °C
26 | COc1ccc(SCC(=O)O)cc1 | 77 to 79 °C
27 | CC(=O)c1ccc(SCC(=O)O)cc1F | 138 to 140 °C
28 | CN1C(=O)CC(CO)C1c1cccc(Cl)c1 (stereo not drawn) | 101 to 103 °C
29 | Cc1noc(C2CC2)c1NC(=O)OC(C)(C)C | 108 to 110 °C
30 | COC(=O)c1ccc2ccn(C)c2c1 | 91 to 93 °C
31 | CNc1cc(C(=O)OC)ccc1N | 79 to 81 °C
32 | O=C(O)CCc1ccc(OC(F)F)cc1 | 61 to 63 °C
33 | COCCS(=O)(=O)c1ccc(C(=O)O)cc1 | 160 to 162 °C
34 | Cc1cc(F)ccc1N1CCCC(Br)C1=O (stereo not drawn) | 94 to 96 °C
35 | O=C(CCl)NCCC1=CCCCC1 | 60 to 62 °C
36 | NS(=O)(=O)NCC1CCCNC1 (stereo not drawn) | 132 to 134 °C
37 | Cc1ccc(O)c(S(=O)(=O)N(C)C)c1 | 76 to 78 °C
38 | Cc1ccc(C#N)c(N2CCCC2)c1 | 68 to 70 °C
39 | O=C(O)CCC(=O)NCC(=O)c1ccc(F)cc1F | 173 to 175 °C
40 | O=C(O)CN1C(=O)c2ccc([N+](=O)[O-])cc2C1=O | 197 to 199 °C
41 | Nc1cc(C2CCOCC2)[nH]n1 | 103 to 105 °C
42 | N#Cc1ccc2cc(Br)c(Br)cc2c1 | 138 to 140 °C
43 | Cc1ccc(SC2(C(=O)O)CCCC2)cc1 | 80 to 82 °C
44 | Cc1cccc(OCC(O)CN)c1 (stereo not drawn) | 75 to 77 °C
45 | CN1CCc2nc(N)c(C#N)cc2C1 | 215 to 217 °C
46 | O=CNc1ccc2c(c1)OCO2 | 96 to 98 °C
47 | NC(=O)NC(CC(=O)O)c1ccccc1Cl (stereo not drawn) | 163 to 165 °C
48 | O=C(O)c1cnnn1-c1ccccc1Cl | 174 to 176 °C

Row | Structure (SMILES) | melting point
49 | CCOc1ccc(Oc2ccccc2N)cc1 | 158 to 160 °C
50 | O=C(O)c1csc(I)c1 | 136 to 138 °C
51 | CS(=O)(=O)c1cccc(C(=O)c2cc(F)ccc2F)c1 | 87 to 89 °C
52 | CN1CCN(C(=O)c2cc(N)ccn2)CC1 | 133 to 135 °C
53 | CCOc1ccc(N)cc1S(N)(=O)=O | 154 to 156 °C
54 | Cc1cc(C(=O)C(C)Cl)c(C)n1-c1ccc(OC(F)F)cc1 (stereo not drawn) | 92 to 96 °C
55 | C=CCSc1nc2ccccc2[nH]1 | 139 to 141 °C
56 | Nc1nc(-c2cccc(-n3cnnn3)c2)cs1 | 184 to 186 °C
57 | COc1ccc(NC(C)=O)cc1S(N)(=O)=O | 220 to 222 °C
58 | COc1ccc(C(=O)O)cc1S(=O)(=O)N(C)Cc1ccccc1 | 180 to 182 °C
59 | O=C(O)c1c[nH]cc1C(=O)O | 311 to 313 °C
60 | N#Cc1ccccc1Oc1ccc(N)cc1 | 118 to 120 °C
61 | CC(C)(C)C1=NN(c2ccccc2)C(=O)C1=CCl | 89 to 91 °C
62 | O=C1CCc2cc(F)ccc2N1 | 134 to 136 °C
63 | O=C(O)c1ccccc1Oc1cccc(Br)c1 | 108 to 110 °C
64 | Cc1ccccc1-n1cc(C(=O)O)cn1 | 106 to 108 °C
65 | O=C(O)c1ccc(NC(=O)c2ccccn2)cc1 | 263 to 265 °C
66 | Nc1ccc(-c2nc3ccccc3o2)cc1 | 170 to 172 °C
67 | Nc1ccc2c(ccn2CC(=O)N2CCOCC2)c1 | 209 to 211 °C
68 | O=Cc1sc(N2CCCC2)nc1Cl | 119 to 121 °C
69 | COc1ccc(-c2[nH]c3ccccc3c2CCC(=O)O)c(OC)c1 | 167 to 169 °C
70 | Nc1ccc(S)c(Cl)c1 | 78 to 80 °C
71 | CSC=CC(=O)O | 118 to 120 °C
72 | Cn1c(=O)c(CBr)nc2ccccc21 | 179 to 181 °C

Row | Structure (SMILES) | melting point
73 | CC(=O)Nc1cccc(CCl)c1 | 83 to 85 °C
74 | Cc1nn(C)c(=O)c(C(=O)N2CSCC2C(=O)O)c1C (stereo not drawn) | 209 to 211 °C
75 | O=S(=O)(Nc1cccc(Cl)c1)c1ccc2oc(S)nc2c1 | 173 to 175 °C
76 | Cc1c(Br)cccc1S(=O)(=O)Cl | 64 to 66 °C
77 | N#Cc1ccc(S(=O)(=O)NC2CC2)cc1 | 99 to 101 °C
78 | CN(C)S(=O)(=O)c1ccccc1CNC(=O)CCl | 87 to 89 °C
79 | Cc1nc(CO)oc1C | 59 to 61 °C
80 | NCc1cnn(-c2cccc(Cl)c2)c1 | 88 to 90 °C
81 | COC(=O)c1c(F)cccc1S(=O)(=O)Cl | 46 to 48 °C
82 | CC(Cl)C(=O)NCC(=O)c1ccccc1 (stereo not drawn) | 86 to 88 °C
83 | O=C(O)c1ccc(-c2ncon2)cc1 | 214 to 216 °C
84 | O=C(NCc1ccco1)c1cccc(CCl)c1 | 74 to 76 °C
85 | O=C(O)C1CC1c1ccc(OCc2ccccc2)cc1 (stereo not drawn) | 147 to 149 °C
86 | CC(NC(=O)c1cc(F)ccc1N)c1ccc(C#N)cc1 (stereo not drawn) | 139 to 141 °C
87 | CCS(=O)(=O)c1ccc(C(=O)O)cc1 | 216 to 218 °C
88 | CCOC(=O)C1CC1c1ccc(OC)cc1 (stereo not drawn) | 78 to 80 °C
89 | COCCNS(=O)(=O)c1cc(C(=O)O)ccc1OC | 183 to 185 °C
90 | COC(=O)c1ccc(C)c(NC(=O)OCC(F)(F)F)c1 | 121 to 123 °C
91 | COc1ccc(C(=O)O)cc1S(=O)(=O)N(C)C | 149 to 151 °C
92 | O=[N+]([O-])c1cc(Br)ccc1S(=O)(=O)Cl | 95 to 97 °C
93 | ClCc1nnc(-c2cccs2)o1 | 77 to 79 °C
94 | Nc1ccc2nc(N3CCOCC3)oc2c1 | 176 to 178 °C
95 | CC(=O)Nc1ccc(-c2csc(N)n2)c(F)c1 | 204 to 206 °C
96 | COc1cccc(-c2nn(Cc3ccccc3)cc2C(=O)O)c1 | 174 to 176 °C

Row | Structure (SMILES) | melting point
97 | O=C(O)C=Cc1ccc(Br)o1 | 125 to 135 °C
98 | CN(C(=O)CSc1ccccc1C(=O)O)C1CCCCC1 | 102 to 104 °C
99 | COC(=O)c1sc2ncccc2c1N | 191 to 193 °C
100 | Cc1cc(C(=O)O)nn1C(C)C1CC1 (stereo not drawn) | 130 to 132 °C
101 | Cn1cc(S(N)(=O)=O)c2ccccc21 | 194 to 196 °C
102 | Cc1cc(/C=C(\C#N)C(=O)O)c(C)n1CCC(C)C | 229 to 231 °C
103 | Cc1ccc2c(CCN)c[nH]c2c1 | 139 to 141 °C
104 | NC(=NO)c1ccc(Br)cc1 | 153 to 155 °C
105 | O=C(O)c1csc(-c2ccccc2)c1 | 184 to 186 °C
106 | C1CN(CCC23CC4CC(CC(C4)C2)C3)CCN1 | 76 to 78 °C
107 | O=C(O)c1ccnc(N2CCCCC2)n1 | 99 to 101 °C
108 | CCCc1cnc(N)s1 | 43 to 45 °C
109 | COc1ccc(N)cc1OCC(N)=O | 161 to 163 °C
110 | CCOC(=O)c1sc(-c2ccc(OC)c(OC)c2)cc1N | 120 to 122 °C
111 | CN(C)C(C(=O)O)c1cc(Cl)cc(Cl)c1 (stereo not drawn) | 170 to 172 °C
112 | O=C(Nc1cccc(O)c1)c1ccco1 | 164 to 166 °C
113 | Nc1ncc(C=NO)s1 | 211 to 213 °C
114 | C#CCNC(=O)C(C)Cl (stereo not drawn) | 61 to 63 °C
115 | Nc1ccc(C(=O)N2CCCC2c2ccccc2)cc1 (stereo not drawn) | 120 to 122 °C
116 | Cc1ccc(S(=O)(=O)Cl)cc1C | 36 to 38 °C
117 | CN(C)C(=O)Sc1ccc2c(c1)CCCC2=O | 99 to 101 °C
118 | COc1ccc2c(CO)cc(=O)oc2c1 | 177 to 179 °C
119 | O=[N+]([O-])c1ccc(-c2c[nH]cn2)cc1 | 224 to 226 °C
120 | Brc1ccc(Oc2ncccn2)cc1 | 114 to 116 °C

Row | Structure (SMILES) | melting point
121 | O=C(O)CN1CCCNC1=O | 248 to 250 °C
122 | Cc1c(C(=O)O)cnn1C1CCCCC1 | 143 to 145 °C
123 | O=C(O)CN1CC(=O)Nc2ccccc21 | 218 to 220 °C
124 | O=C(O)CCc1ccc2ccccc2c1 | 135 to 137 °C
125 | N#Cc1ccccc1NCc1ccco1 | 60 to 62 °C
126 | CN(C1CCCCC1)S(=O)(=O)c1ccc(C(=O)O)cc1 | 213 to 215 °C
127 | O=C(O)c1ccc(NS(=O)(=O)c2ccc(Cl)c(Cl)c2)cc1 | 254 to 256 °C
128 | CC(C)(C)OC(=O)Nc1cc(C(=O)O)ccc1F | 177 to 179 °C
129 | COc1ccc(S(=O)(=O)N2CCCCC2)cc1NC(=O)CCl | 115 to 130 °C
130 | O=C(O)c1ccc(Cc2nnc[nH]2)cc1 | 219 to 221 °C
131 | Nc1cccc2c1CC(O)C2 (stereo not drawn) | 125 to 127 °C
132 | O=C(O)C=Cc1ccc(SC(F)(F)F)cc1 | 212 to 214 °C
133 | CC1CCCN1C(=O)c1cc2ccccc2cc1N (stereo not drawn) | 123 to 125 °C
134 | Cc1ccc(C)n1-c1ccc(CC(=O)O)cc1 | 106 to 108 °C
135 | N#CCc1nc(N)nc(N)n1 | 280 to 282 °C
136 | CN(C)C(C#N)c1cc[nH]c1 (stereo not drawn) | 71 to 73 °C
137 | O=C(NCCO)c1ccccc1 | 60 to 62 °C
138 | CCc1sc(N)nc1-c1ccc(OC)cc1 | 112 to 114 °C
139 | CC(=O)Nc1cc(C(=O)CCl)ccc1O | 188 to 190 °C
140 | O=C(O)c1cc(=O)n(Cc2ccccc2)c2ccccc12 | 215 to 217 °C
141 | COc1ccc(C(N)=O)cc1F | 169 to 171 °C
142 | CC(C)C(C(=O)O)N1CCCC1=O (stereo not drawn) | 130 to 132 °C
143 | CNC(C)c1ccc(-n2cnc3ccccc32)cc1 (stereo not drawn) | 62 to 64 °C
